Results taken from US4650907A, “Nonaromatic fluoroallylamine MAO inhibitors” (Merrell Dow Pharmaceuticals Inc., priority 1985, dated 1987).

Columns and labels:
[1] = test system: MAO; settings: selective at lower dosages, less selective at higher dosages; cited from earlier work
[2] = biological target: T1, MAO-B (Rattus norvegicus, UniProt P19643); assay: Inhibition of MAO - in vitro, partially purified mitochondria from rat brain, 14C-phenethylamine (PEA) substrate (MAO-B); type: biochemical; settings: substrate 14C-phenethylamine (PEA), preferred substrate for MAO-B
T1 construct: preparing mitochondria from rat brain by homogenation in phosphate buffer; from tissue; host or cells: rat brain mitochondria
T1 sequence (P19643 1-520): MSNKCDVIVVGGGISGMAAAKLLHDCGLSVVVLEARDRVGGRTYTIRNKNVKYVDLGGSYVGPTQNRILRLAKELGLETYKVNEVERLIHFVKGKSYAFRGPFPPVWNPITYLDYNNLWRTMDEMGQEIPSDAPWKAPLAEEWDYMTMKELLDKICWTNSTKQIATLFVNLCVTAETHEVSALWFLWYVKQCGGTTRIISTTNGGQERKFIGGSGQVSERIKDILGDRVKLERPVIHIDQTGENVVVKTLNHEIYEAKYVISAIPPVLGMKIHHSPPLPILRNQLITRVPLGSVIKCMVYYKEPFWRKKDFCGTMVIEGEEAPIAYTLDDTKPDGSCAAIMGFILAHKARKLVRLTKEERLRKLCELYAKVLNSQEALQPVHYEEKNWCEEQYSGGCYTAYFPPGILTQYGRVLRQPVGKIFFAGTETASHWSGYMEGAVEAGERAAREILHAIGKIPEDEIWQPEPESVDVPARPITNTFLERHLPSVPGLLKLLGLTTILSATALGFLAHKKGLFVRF
Text: (§1) The ability of a compound of structure 1 to inhibit MAO can be determined in vitro by the method of A. Christmas et al., Br. J. Pharmacol. 45, 490 (1972) in partially purified mitochondria from rat brain using ^14 C otyramine or ^14 C phenethylamine and ^14 C 5-HT as the substrate. The MAO inhibitory activity of a compound is expressed as the "IC50 " value, which is the molar concentration required to produce 50% inhibition of the enzyme. The IC50 values for certain compounds of structure 1 were determined using the above-described method, and the results are set forth in Table I.
(§2) The selectivity of a compound of structure 1 with respect to inhibition of MAO-A and MAO-B can be determined by preparing mitochondria from rat brain by homogenation in phosphate buffer (0.1 M, pH 7.2) followed by differential centrifugation. The mitochondria are suspended in the same buffer, the test compound is added at the desired concentration, and the system is incubated. At different time intervals, aliquots are taken and MAO activity is measured using ^14 C 5-hydroxytryptamine (5HT; a preferred substrate for MAO-A) or 14C -phenethylamine (PEA; a preferred substrate for MAO-B) as the substrates. The selectivity is expressed as the ratio of the inhibitory activity against MAO-B versus the inhibitory activity against MAO-A. (Zreika, McDonald, Bey, Palfreyman, J. Neurochem., 448-454 (1984)).

[3] = biological target: T2, MAO-A (Rattus norvegicus, UniProt P21396); assay: Inhibition of MAO - in vitro, partially purified mitochondria from rat brain, 14C 5-hydroxytryptamine (5-HT) substrate (MAO-A); type: biochemical; settings: substrate 14C 5-hydroxytryptamine (5HT), preferred substrate for MAO-A
T2 construct: preparing mitochondria from rat brain by homogenation in phosphate buffer; from tissue; host or cells: rat brain mitochondria
T2 sequence (P21396 1-526): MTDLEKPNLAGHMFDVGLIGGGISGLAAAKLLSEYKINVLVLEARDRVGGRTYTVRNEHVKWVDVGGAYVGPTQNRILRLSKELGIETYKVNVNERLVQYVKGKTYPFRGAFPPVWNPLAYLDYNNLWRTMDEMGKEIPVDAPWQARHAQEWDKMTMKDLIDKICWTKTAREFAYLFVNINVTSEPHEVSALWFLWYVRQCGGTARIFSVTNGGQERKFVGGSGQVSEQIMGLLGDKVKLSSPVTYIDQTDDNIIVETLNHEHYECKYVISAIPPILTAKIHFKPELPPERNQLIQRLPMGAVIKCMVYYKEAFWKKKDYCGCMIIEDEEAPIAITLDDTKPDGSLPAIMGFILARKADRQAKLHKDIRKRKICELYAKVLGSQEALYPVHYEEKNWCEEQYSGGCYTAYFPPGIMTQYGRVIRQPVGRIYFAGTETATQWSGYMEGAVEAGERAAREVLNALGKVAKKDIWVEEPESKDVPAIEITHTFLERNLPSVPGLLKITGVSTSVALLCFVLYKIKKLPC
Text: as §1, §2

[4] = cited from earlier work; for clinical antidepressant effect: man
[5] = biological target: T2, MAO-A; assay: Inhibition of MAO - ex vivo, brain mitochondria of orally dosed rats, 14C 5-hydroxytryptamine substrate (MAO-A); type: in vivo; settings: po, brain mitochondrial fraction
Experimental: (§3) The test compound is administered orally (po) to rats and the animals are killed at various times after treatment. The brain is removed and a mitochondrial fraction, described in Example 12 is prepared. MAO activity is determined using ^14 C p-tyramine, as the substrate. Selectivity can be determined by repeating the above-described test using either ^14 C 5-hydroxytryptamine (for MAO-A) or ^14 C phenethylamine (for MAO-B) as the substrate for determining the % inhibition.

[6] = biological target: T1, MAO-B; assay: Inhibition of MAO - ex vivo, brain mitochondria of orally dosed rats, 14C phenethylamine substrate (MAO-B); type: in vivo; settings: po, brain mitochondrial fraction
Experimental: as §3

Structure (SMILES)	preferential inhibition of MAO (in words) [1]	IC50 [2]	IC50 [3]	further results
NNCCc1ccccc1 [phenelzine]	not preferential in their action upon MAO	–	–	–
CC(C)/C(=C\F)CN [(E)-2-Isopropyl-3-fluoroallylamine]	–	2500 nM	170000 nM	–
CCCCCCCCCCC/C(=C\F)CN [(E)-2-Undecyl-3-fluoroallylamine]	–	500 nM	750 nM	–
CCCCCC/C(=C\F)CN [(E)-2-Hexyl-3-fluoroallylamine]	–	7 nM	170 nM	–
CCCCCCC/C(=C\F)CN [(E)-2-Heptyl-3-fluoroallylamine]	–	4.5 nM	60 nM	–
C#CCN(C)CCCOc1ccc(Cl)cc1Cl [clorgyline]	–	–	–	clinical antidepressant effect [4]: clinically effective antidepressant agents
N[C@@H]1C[C@H]1c1ccccc1 (relative stereo) [tranylcypromine]	not preferential in their action upon MAO	–	–	–
Cc1cc(C(=O)NNCc2ccccc2)no1 [isocarboxazid]	not preferential in their action upon MAO	–	–	–
CCC(C)/C(=C\F)CN (centres unmarked) [(E)-2-sec-Butyl-3-fluoroallylamine]	–	7000 nM	170000 nM	–
CCCC/C(=C\F)CN [(E)-2-Butyl-3-fluoroallylamine]	–	2 nM	110 nM	–
C#CCN(C)Cc1ccccc1 [pargyline]	MAO-B is preferentially inhibited	–	–	clinical antidepressant effect [4]: clinically effective antidepressant agents
CC(C)C/C(=C\F)CN [(E)-2-Isobutyl-3-fluoroallylamine]	–	30 nM	2300 nM	ED50 [5]: 0.8 mg/kg; ED50 [6]: 0.05 mg/kg
C#CCN(C)[C@H](C)Cc1ccccc1 [L-deprenyl]	MAO-B is preferentially inhibited	–	–	cheese effect ([4]; low dosages where preferential inhibition of MAO-B occurs): not observed; clinical antidepressant effect [4]: clinically effective antidepressant agents; potentiation of L-DOPA in Parkinson's disease ([4]; treatment of Parkinson's disease): potentiate L-DOPA for the treatment of Parkinson's disease without producing peripheral side effects
